Source: US12521356B2, “Compositions and methods for treating pain, inflammation, infection, malaria, and sepsis” (Duke University, priority 2018, dated 2026)

Tests used:
[1] = test system: peritoneal macrophages (pMΦ); test: Phagocytosis assay with fluorescence-labeled zymosan particles in peritoneal macrophages; assay type: cell-based, mouse; conditions: for MΦ phagocytosis: pMΦ
Method: (§1) Peritoneal macrophage culture. Peritoneal macrophages were collected by peritoneal lavage with 10 ml warm PBS containing of 1 mM EDTA. Cells were incubated in DMEM supplemented with 10% FBS at 37° C. for 2 h in petri dish and washed with PBS to eliminate non-adherent cells. The adherent cells were used as peritoneal macrophages. Peritoneal macrophages were used after 3 days of culture.
Phagocytosis assay. The phagocytosis assay was modified from a previously described protocol (Sommer C, and Kress M. NeurosciLett. 2004, 361, 184-187). pHrodo® Red Zymosan Bioparticles (diameter, 3 μm, Thermo scientific, Catalog: P35364) were rinsed and reconstituted in RPMI medium. Particles were centrifuged (1 min at 100 g) onto adherent peritoneal macrophages at a ratio of 10:1 to synchronize binding and internalization. After 30 min incubation at 37° C., non-adherent beads were removed with cold PBS and cells were fixed with 2% formalin. Four optic fields were photographed with epifluorescence microscopy. Quantification of zymosan particles ingested by MΦ was conducted on at least 200 macrophages/condition/well, and triplicates were included for statistical analysis.
We investigated whether iCa^2+ increases would trigger phagocytosis of pathogens such as zymosan by macrophages. Zymosan is a well-studied pathogen and activates TLR2 to trigger inflammation and inflammatory pain in rodents after intraplantar injection. We tested phagocytosis in pMΦ using fluorescence-labeled zymosan particles.

GPR37 = target: T1, GPR37 (Mus musculus, UniProt Q9QY42); test: Ca2+ imaging (Fluo-4AM) in peritoneal macrophages (pMΦ) from WT and Gpr37−/− mice; assay type: cell-based; conditions: for iCa2+ levels: 100 nM
T1 sequence (Q9QY42 27-600): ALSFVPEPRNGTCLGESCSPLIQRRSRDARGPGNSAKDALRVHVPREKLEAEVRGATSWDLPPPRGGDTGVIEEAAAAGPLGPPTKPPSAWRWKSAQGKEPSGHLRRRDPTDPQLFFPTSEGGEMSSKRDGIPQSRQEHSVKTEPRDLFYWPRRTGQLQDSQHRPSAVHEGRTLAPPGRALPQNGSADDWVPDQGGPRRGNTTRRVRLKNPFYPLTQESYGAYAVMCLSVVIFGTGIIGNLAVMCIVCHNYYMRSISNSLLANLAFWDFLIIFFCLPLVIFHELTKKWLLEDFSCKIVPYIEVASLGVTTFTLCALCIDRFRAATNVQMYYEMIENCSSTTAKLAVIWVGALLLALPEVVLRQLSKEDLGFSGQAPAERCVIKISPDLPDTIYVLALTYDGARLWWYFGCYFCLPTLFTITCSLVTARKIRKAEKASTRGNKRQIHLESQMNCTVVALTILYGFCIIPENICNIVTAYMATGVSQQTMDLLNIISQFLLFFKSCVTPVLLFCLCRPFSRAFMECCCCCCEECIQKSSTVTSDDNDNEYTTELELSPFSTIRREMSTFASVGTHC
Method: as §1
Calcium imaging. HEK 293 cells, with or without transfection of Gpr37, GPR32, ChemR23 or ALX1 cDNA, were loaded with 5 μM Fura-2AM (Invitrogen) for 1 hour and then were resuspended in normal external buffer (140 NaCl, 5 KCl, 2 CaCl2, 2 MgCl2, 10 HEPES, in mM, titrated to pH 7.4 with NaOH) or external Ca^2+-free buffer (140 NaCl, 2 MgCl2, 5 EGTA, 10 HEPES, in mM, titrated to pH 7.4 with NaOH). Peritoneal macrophages, collected from WT and Gpr37 KO mice, were loaded with 5 μM […] (Invitrogen) for 1 hour and then were resuspended in normal external buffer. Images of the HEK 293 cells and macrophages with the excitation wavelength of 340 nm and 380 nm were captured with a cooled Digital CMOS camera (ORCA-Flash 4.0, Hamamatsu Photonics K.K, Japan). The ratio of fluorescence intensity of the two wavelengths in each experiment was analyzed using MetaFluor (Molecular Devices). The Shutter speed and wavelength was controlled by Lambda DG-4 system (Sutter instrument Co., Novato, CA). Values from each of the experiments were normalized to the baseline ratio of 340/380 nm.
Next, we conducted GPR37-mediated Ca^2+ imaging in native pMΦ from WT and Gpr37^−/− mice using Fluo-4AM as a Ca^2+ indicator, since this dye works better than Fura-2AM for pMΦ. […] As compared to iCa^2+ increase in GPR37-expressing HEK293 cells, NPD1 trigger a slow-onset but more persistent Ca^2+ response in pMΦ (FIG. 2B and FIG. 2G). A relatively rapid calcium response in HEK293 cells may result from over-expression of GPR37. A sustained iCa^2+ increase in pMΦ may result from the expression of transient receptor potential (TRP) ion channels in these immune cells. It is noteworthy that macrophages express TRPV2 or TRPM2, which are involved in phagocytosis during bacterial infection. […] NPD1-triggered iCa^2+ increase in pMΦ is also Gi-dependent, since PTX blocked this increase (FIG. 2H). For comparison, ATP-evoked iCa^2+ increase was not altered in GPR37-deficient pMΦ (FIG. 2H).

iCa2+ levels (GPR37; pMΦ)	iCa2+ increase (GPR37; 30 nM, WT pMΦ)	EC50 (GPR37; pMΦ, dose response, read-out: EC50 of iCa2+ increase) [nM]	Structure (SMILES)	MΦ phagocytosis [1]	NPD1-evoked increases in phagocytic activity ([1]; Gpr37-deficient MΦ)	percentage of pMΦ showing the phagocytosis of zymosan particles ([1]; wild-type pMΦ)	phagocytic activity (zymosan particles in pMΦ) ([1]; wild-type pMΦ, 30 nM for 30 min)
did not alter iCa^2+ levels			CC/C=C\C[C@H](O)/C=C/C=C\C=C\C=C\[C@@H](O)[C@@H](O)C/C=C\CCC(=O)O [RvD1]	induced			
did not alter iCa^2+ levels			CC[C@@H](O)/C=C/C=C\C[C@@H](O)/C=C/C=C/C=C\[C@@H](O)CCCC(=O)O [RvE1]	induced			
	robust and sustained iCa^2+ increase	19.5	CC/C=C\C[C@H](O)\C=C/C=C/C=C/[C@H](O)C/C=C\C/C=C\CCC(=O)O [NPD1, neuroprotectin D1]		abolished	increased	dose-dependent increase in phagocytic activity
